The source made the active and inactive calls. The rule behind the calls is not given here.
What was measured:
[1] = tested on: HL-60; assay: Induction of human HL60 cell differentiation; format: functional, cell-based
[2] = tested on: HL-60; assay: Induction of human HL60 cell differentiation in presence of 1 x 10^-10 M RAR agonist Am80; format: functional, cell-based
[3] = target: T1, Retinoid X receptor (Homo sapiens, UniProt P28702+P48443+P19793); assay: Agonist activity at RXR (unknown origin) in presence of RAR agonist Am80; format: protein assay
T1 sequence (P28702 whole entry): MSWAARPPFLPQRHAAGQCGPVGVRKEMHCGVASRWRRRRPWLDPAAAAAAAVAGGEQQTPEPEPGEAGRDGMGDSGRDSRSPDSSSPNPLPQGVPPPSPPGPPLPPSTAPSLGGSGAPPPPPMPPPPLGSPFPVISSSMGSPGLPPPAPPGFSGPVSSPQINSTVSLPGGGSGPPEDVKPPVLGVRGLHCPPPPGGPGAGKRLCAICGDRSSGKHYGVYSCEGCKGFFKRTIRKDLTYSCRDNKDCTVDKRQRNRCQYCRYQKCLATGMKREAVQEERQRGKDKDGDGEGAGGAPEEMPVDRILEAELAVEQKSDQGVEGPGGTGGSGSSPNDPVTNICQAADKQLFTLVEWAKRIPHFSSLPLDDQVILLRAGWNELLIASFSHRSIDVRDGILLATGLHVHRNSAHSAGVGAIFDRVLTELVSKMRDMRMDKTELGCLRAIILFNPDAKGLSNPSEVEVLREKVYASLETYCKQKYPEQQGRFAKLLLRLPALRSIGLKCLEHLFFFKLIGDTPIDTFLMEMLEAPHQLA
T1 sequence (P48443 whole entry): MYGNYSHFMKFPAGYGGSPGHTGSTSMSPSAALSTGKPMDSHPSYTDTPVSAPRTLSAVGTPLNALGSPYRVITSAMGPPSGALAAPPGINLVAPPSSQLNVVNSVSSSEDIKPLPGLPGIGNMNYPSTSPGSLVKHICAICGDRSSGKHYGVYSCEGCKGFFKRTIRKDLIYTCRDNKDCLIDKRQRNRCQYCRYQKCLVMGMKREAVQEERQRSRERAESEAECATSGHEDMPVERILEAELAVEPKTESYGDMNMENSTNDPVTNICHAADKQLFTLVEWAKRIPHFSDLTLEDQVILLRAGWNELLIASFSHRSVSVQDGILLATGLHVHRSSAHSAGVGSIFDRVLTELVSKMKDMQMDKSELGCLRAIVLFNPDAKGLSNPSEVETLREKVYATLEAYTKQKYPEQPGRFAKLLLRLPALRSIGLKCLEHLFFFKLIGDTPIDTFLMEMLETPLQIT
T1 sequence (P19793 whole entry): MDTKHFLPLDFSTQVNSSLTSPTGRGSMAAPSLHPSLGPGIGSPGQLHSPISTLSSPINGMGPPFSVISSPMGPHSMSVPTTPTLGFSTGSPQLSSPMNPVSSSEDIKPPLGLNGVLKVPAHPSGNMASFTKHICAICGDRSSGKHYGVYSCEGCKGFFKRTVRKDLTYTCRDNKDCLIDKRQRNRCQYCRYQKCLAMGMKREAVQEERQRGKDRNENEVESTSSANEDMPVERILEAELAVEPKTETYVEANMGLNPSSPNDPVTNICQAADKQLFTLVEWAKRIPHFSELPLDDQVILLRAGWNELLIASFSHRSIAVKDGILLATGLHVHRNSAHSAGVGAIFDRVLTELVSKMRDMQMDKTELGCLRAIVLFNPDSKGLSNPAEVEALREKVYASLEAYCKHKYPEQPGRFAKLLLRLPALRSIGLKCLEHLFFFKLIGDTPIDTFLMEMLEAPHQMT

[4] = Agonist activity at RAR/RXR (unknown origin); design: species or system Homo sapiens
[5] = Agonist activity at RAR/RXR (unknown origin) in presence of RAR agonist Am80; design: species or system Homo sapiens
[6] = tested on: HL-60; assay: Inhibition of Am80-induced human HL60 cell differentiation; format: cell-based
[7] = tested on: HL-60; assay: Induction of human HL60 cell differentiation at 1 x 10^-10 M; format: functional
[8] = tested on: HL-60; assay: Induction of human HL60 cell differentiation at 3.3 x 10^-10 M; format: functional

| Structure (SMILES) | Activity [2] | Activity [1] | further results |
| --- | --- | --- | --- |
| Cc1cc2c(cc1N(C)c1ccc(/C=C/C(=O)O)cc1)C(C)(C)CCC2(C)C | Active |  | EC50 [1]: 38 nM |
| CCCN(c1ccc(/C=C/C(=O)O)cc1)c1ccc2c(c1)C(C)(C)CCC2(C)C | Active | Active |  |
| CCCN(c1ccc(C(=O)O)cc1)c1cc2c(cc1C)C(C)(C)CCC2(C)C | Active |  | EC50 [3]: 1.4 ×10⁻¹⁰ M |
| CCCN(c1ccc(C(=O)O)cc1)c1ccc2c(c1)C(C)(C)CCC2(C)C | Active |  | EC50 [4]: Not Active; EC50 [5]: 1.5 nM |
| CN(c1ccc(/C=C/C(=O)O)cc1)c1ccc2c(c1)C(C)(C)CCC2(C)C | Active |  | EC50 [1]: 22 nM |
| CCCN(c1ccc(CCC(=O)O)cc1)c1cc2c(cc1C)C(C)(C)CCC2(C)C | Active | Active |  |
| CCCN(c1ccc(CCC(=O)O)cc1)c1ccc2c(c1)C(C)(C)CCC2(C)C | Active | Active |  |
| CN(c1ccc(C(=O)O)cc1)c1ccc2c(c1)C(C)(C)CCC2(C)C |  | Active | EC50 ([4]; read-out: EC50): 360 nM; EC50 [5]: 6.6 nM |
| Cc1cc2c(cc1N(C)c1ccc(CCC(=O)O)cc1)C(C)(C)CCC2(C)C | Active | Active |  |
| Cc1cc(C(=O)O)ccc1N(C)c1ccc2c(c1)C(C)(C)CCC2(C)C | inactive | inactive | inhibition (INH) [6]: Dose-dependent effect |
| Cc1cc2c(cc1N(C)c1ccc(C(=O)O)cc1)C(C)(C)CCC2(C)C | Active | Active | EC50 [3]: 1.3 ×10⁻¹⁰ M |
| CN(c1ccc(CCC(=O)O)cc1)c1ccc2c(c1)C(C)(C)CCC2(C)C | Active | Active |  |
| CCCN(c1ccc(/C=C/C(=O)O)cc1)c1cc2c(cc1C)C(C)(C)CCC2(C)C | Active | Active |  |
| CC1(C)CCC(C)(C)c2cc(NC(=O)c3ccc(C(=O)O)cc3)ccc21 [TAMIBAROTENE] |  |  | Activity [7]: 5%; Activity [8]: 60% |
